Measured values published in ChEMBL document CHEMBL1201862, “PubChem BioAssay data set” (2004).
Several values for one entry are separate records, joined by “and”; a condition that tells them apart may be missing. Equal entries are not always repeated.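 Test compounds were applied to cells in 96-well plates for 48 hours at 5 doses. GI50 is the concentration that inhibits growth by half.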 Activity calls are given as the source filed them. Rule as the data show it: active = GI50 up to about 1.1 µM and inactive = higher.

Assays:
Assay in all cases: NCI anticancer screen, dose series, 48 h
[1] = tested on: 786-0
[2] = tested on: A549
[3] = tested on: ACHN
[4] = tested on: COLO 205
[5] = tested on: HL-60
[6] = tested on: Hs-578T
[7] = tested on: MDA-MB-231
[8] = tested on: MOLT-4
[9] = tested on: Malme-3M
[10] = tested on: NCI-H226
[11] = tested on: OVCAR-3
[12] = tested on: OVCAR-4
[13] = tested on: PC-3
[14] = tested on: SR
[15] = tested on: T47D
[16] = tested on: U-251
[17] = tested on: UACC-257
[18] = tested on: UACC-62
[19] = tested on: UO-31
[20] = tested on: BT-549

Structure (SMILES) | GI50 [1] | GI50 [2] | GI50 [3] | GI50 [4] | GI50 [5] | GI50 [6] | GI50 [7] | GI50 [8] | GI50 [9] | GI50 [10] | GI50 [11] | GI50 [12] | GI50 [13] | GI50 [14] | GI50 [15] | GI50 [16] | GI50 [17] | GI50 [18] | GI50 [19] | GI50 [20]
CC(=O)c1sc2c(c1OC(=O)c1ccc(Cl)cc1Cl)c(=O)n(-c1ccccc1)c(=S)n2-c1ccccc1 | 0.47 µM (active) | 9.98 µM (inactive) | 0.321 µM (active) | 1.07 µM (active) | 3.81 µM (inactive) | 0.1 µM (active) | 0.861 µM (active) | 0.14 µM (active) | 0.252 µM (active) | 0.258 µM (active) | 4.14 µM (inactive) | 13.2 µM (inactive) | 0.608 µM (active) | 0.501 µM (active) | 9.27 µM (inactive) | 0.342 µM (active) | 3.88 µM (inactive) | 10.8 µM (inactive) | 0.347 µM (active) | 
COc1ccc(C2Oc3c(OC)cc(CCCO)cc3C2CO)cc1OC (centres undefined) | > 100 µM (inactive) | 88.1 µM (inactive) and 80 µM (inactive) | > 100 µM (inactive) and 76.6 µM (inactive) | > 100 µM (inactive) | 43.8 µM (inactive) and 65.3 µM (inactive) | > 100 µM (inactive) | 99.3 µM (inactive) | 42.5 µM (inactive) and 26.9 µM (inactive) | > 100 µM (inactive) and 50.7 µM (inactive) | > 100 µM (inactive) | > 100 µM (inactive) | > 100 µM (inactive) | > 100 µM (inactive) |  | 10.9 µM (inactive) and 18.3 µM (inactive) | > 100 µM (inactive) |  | 54.6 µM (inactive) and 83.9 µM (inactive) |  | 96.2 µM (inactive) and 50.7 µM (inactive)
CC1(C)OC(CCO)CN1C(=O)OCc1ccccc1 (centres undefined) | > 100 µM (inactive) | > 100 µM (inactive) | > 100 µM (inactive) | > 100 µM (inactive) | > 100 µM (inactive) |  | > 100 µM (inactive) | > 100 µM (inactive) | > 100 µM (inactive) | > 100 µM (inactive) | > 100 µM (inactive) | > 100 µM (inactive) | > 100 µM (inactive) | > 100 µM (inactive) |  | > 100 µM (inactive) | > 100 µM (inactive) | > 100 µM (inactive) | > 100 µM (inactive) | 33.6 µM (inactive)
Brc1ccc2c(c1)-c1nc3c(cc1CC2)CCc1ccc(Br)cc1-3 | > 100 µM (inactive) | > 100 µM (inactive) | > 100 µM (inactive) | > 100 µM (inactive) |  |  | > 100 µM (inactive) | 42.4 µM (inactive) | > 100 µM (inactive) | > 100 µM (inactive) | > 100 µM (inactive) | > 100 µM (inactive) | > 100 µM (inactive) |  | > 100 µM (inactive) | > 100 µM (inactive) | > 100 µM (inactive) |  | > 100 µM (inactive) | > 100 µM (inactive)
COc1ccc(C(c2cc(OC)c(OC)c(OC)c2)N2C(=O)CCC2C(=O)O)cc1 (centres undefined) | 73.1 µM (inactive) | 40.2 µM (inactive) | 89.3 µM (inactive) | 41 µM (inactive) | 32 µM (inactive) | 62.1 µM (inactive) | > 100 µM (inactive) | 72.6 µM (inactive) | 68.9 µM (inactive) | 74.3 µM (inactive) | 33.8 µM (inactive) | > 100 µM (inactive) | 46 µM (inactive) | 49.7 µM (inactive) | 47.2 µM (inactive) | 38.3 µM (inactive) | > 100 µM (inactive) | 51.3 µM (inactive) | 56.4 µM (inactive) | 
CN(C)c1ccc(-c2c(C#N)c(O)n(NS(=O)(=O)c3ccccc3)c(=O)c2C#N)cc1 | > 100 µM (inactive) | > 100 µM (inactive) | > 100 µM (inactive) | > 100 µM (inactive) | > 100 µM (inactive) | > 100 µM (inactive) | > 100 µM (inactive) | > 100 µM (inactive) | > 100 µM (inactive) | > 100 µM (inactive) |  | > 100 µM (inactive) | > 100 µM (inactive) |  |  | > 100 µM (inactive) | > 100 µM (inactive) | > 100 µM (inactive) |  | > 100 µM (inactive)
COC(=O)C1=C(C(=O)OC)C(Cc2ccccc2)(OO)OC1=O (centres undefined) | 2.95 µM (inactive) | 27.4 µM (inactive) | 2.99 µM (inactive) | 7.19 µM (inactive) | 0.964 µM (active) |  | 28.2 µM (inactive) | 3.64 µM (inactive) | 6.22 µM (inactive) | 5.46 µM (inactive) | 4.33 µM (inactive) | 16 µM (inactive) | 13.1 µM (inactive) | 3.52 µM (inactive) | 9.98 µM (inactive) | 12.8 µM (inactive) | 4.38 µM (inactive) | 3.52 µM (inactive) | 5.18 µM (inactive) | 6.32 µM (inactive)
